Results published in patent publication US20230338345A1, “DRUG COMBINATION AND USE THEREOF” (NATURAL MEDICINE INSTITUTE OF ZHEJIANG YANGSHENGTANG CO., …, priority 2020, published 2023).
Where two headings read alike, the source gives them in different places.

Tests used:
[1] = mouse, in vivo
Protocol: (§1) (2) After tumor formation, the mice were divided into four experimental groups, namely, a blank control, a roflumilast group, a sodium ascorbate group, and a roflumilast+sodium ascorbate group. The mice in the roflumilast+sodium ascorbate group were intraperitoneally injected with roflumilast at 4 mg/kg and intravenously injected with sodium ascorbate at 1.5 g/kg every three days, for 5 administrations. At the same time, the roflumilast group and the sodium ascorbate group were separately injected with roflumilast and sodium ascorbate at the same dose in the same way; and normal saline was injected at the same dose in the blank control. The day of the first injection was taken as Day 1, and then the mice were tested and recorded in terms of body weight and tumor size: tumor volume (mm^3)=length (L) ×width (W) 2/2. Luciferin fluorescence imaging was conducted on tumors. That is, a 1 mg/mL D-luciferin potassium aqueous solution was formulated; each mouse was intraperitoneally injected with 100 μL of the D-luciferin potassium aqueous solution, and 10 minutes after injection, was subjected to luciferin fluorescence imaging with a small animal in vivo imager (Model: IVIS Lumina XRMS Series III).

[2] = Body weight of tumor-bearing mice (Example 1); details: roflumilast 4 mg/kg i.p., sodium ascorbate 1.5 g/kg i.v., every three days, 5 administrations; compared with the control
Protocol: as §1

| Structure (SMILES) | effect on the body weight of mice [1] | effect on the body weight of mice [2] |
| --- | --- | --- |
| O=C(Nc1c(Cl)cncc1Cl)c1ccc(OC(F)F)c(OCC2CC2)c1 [roflumilast] | no effect on the body weight of mice | – |
| O=C1O[C@H]([C@@H](O)CO)C([O-])=C1O.[Na+] [sodium ascorbate] | – | no effect on the body weight of mice |
